Results: patent US20220119868A1, “PROFILING RNA-SMALL MOLECULE BINDING SITES WITH OLIGONUCLEOTIDES” (priority 2018, published 2022)

Assays:
[1] = tested on: HCV replication, SGR-Neo-RLuc-JFH1-2A replicon cells established in Huh-7.5; experiment: HCV replication in subgenomic replicon cells (Renilla luciferase); type: cell-based, Hepatitis C virus; settings: Hepatitis C virus, Huh7.5; replicon cells, luciferase activity; read-out: IC50, inhibition of HCV replication
Text: (§1) The compounds bind their cognate loops in the 3′ UTR with mid-nanomolar to low micromolar affinities (Table 1). It was next determined if the identified compounds could inhibit HCV RNA replication in HCV subgenomic replicon cells, in particular SGR-Neo-RLuc-JFH1-2A replicon cells established in Huh-7.5 (human hepatoma cells). In this system, an autonomously replicating viral RNA replicon is used to monitor efficiently RNA replication of the virus in the absence of spread of viral RNA to adjacent cells. This is achieved by replacing the structural proteins required to assembly progeny virions with a drug selectable marker (Neo) and a Renilla luciferase (RLuc) reporter gene. Once this replicon has been delivered to human hepatoma cells and selection with G418 (conferred by Neo selectable marker) has occurred, the expression and Renilla luciferase activity is directly correlated with the level of HCV replication^57.
They were therefore assayed for their ability to inhibit HCV replication using this replicon system, with DMSO vehicle and 2′-C-methyladenosine^17 triphosphate serving as negative and positive controls, respectively.
(§2) Effect of compounds on HCV replication. […] Cytotoxicity assays. […] Oligonucleotide profiling of target engagement in vitro. […] Primers can be found in Table 4. […] Inhibition of kinases. […] . Figure S7C).

RNA motif libraries A-E = experiment: 2DCS: array-immobilized small molecules incubated with RNA motif libraries; type: binding; settings: libraries C-E
Text: (§3) Identification of RNA-binding Small Molecules by 2DCS. […] We have previously validated the secondary structures formed by members of RNA libraries by enzymatic mapping^8, 12, 34. These discrete RNA motifs were selected because they are present in cellular RNAs. Due to the library-versus-library nature of these studies, they represent the largest screens completed to date, probing >52,000,000 interactions. Of the 1,987 compounds probed, 239 bound RNA (12.0%).
A final screen was then completed in which the 91 array-immobilized compounds were incubated with all five RNA motif libraries separately in the presence of oligonucleotide competitors F-J, d(AT)11 and d(GC)11. Oligonucleotides F-J mimic regions common to all library members, restricting binding to the randomized regions. (Note: oligonucleotide J was not used for hairpin selections.) After rigorous washing to remove unbound RNAs, bound RNAs were harvested and identified by RNA-seq. […]
Identification of Privileged RNA Space by RNA-Seq. […] RNA-seq data were then analyzed by High Throughput Structure-Activity Relationships Through Sequencing (HiT-StARTS)^12 to identify the privileged RNA motifs that bind each small molecule. […] Next, the most privileged RNA motif binders and the most discriminated against RNA motifs (non-binders) for each compound selection was analyzed by generating LOGOS from the highest and lowest 0.5% of Zobs scores^37. […]

[2] = tested on: RNA library A (5-nucleotide hairpin library); experiment: 2DCS selection with LOGOS analysis; type: binding; settings: 5-nucleotide hairpins
Text: as §3
A final screen was then completed in which the 91 array-immobilized compounds were incubated with all five RNA motif libraries separately in the presence of oligonucleotide competitors F-J, d(AT)11 and d(GC)11. Oligonucleotides F-J mimic regions common to all library members, restricting binding to the randomized regions. (Note: oligonucleotide J was not used for hairpin selections.) After rigorous washing to remove unbound RNAs, bound RNAs were harvested and identified by RNA-seq. By completing selections under conditions of high oligonucleotides stringency (by use of excess competitor oligonucleotides), these studies identified small molecules that bound RNA motifs avidly. A challenge in the small molecule RNA-targeting area has been the development and identification of selective interactions between small molecules and RNAs. In myriad studies, 2DCS has defined selective RNA motif-small molecule interactions with varied affinities^11, 12, 35, 36.
Identification of Privileged RNA Space by RNA-Seq. Using RNA-seq, a large sequencing dataset was obtained for each pool of RNAs that were specifically bound to each small molecule. RNA libraries A, B, C, D, and E had at least 12.1-fold (average: 133.1±111.8), 6.7-fold (average: 80.8±78.7), 9.9-fold (average: 103.5±110.6), 7.2-fold (average: 75.7±65.6), and 6.0-fold (average: 36.3±31.6) coverage for each small molecule selection, respectively, as compared to the number of unique sequences within the corresponding RNA library. It was previously shown that at least 6-fold coverage is required to generate binding landscape maps^12. RNA-seq data were then analyzed by High Throughput Structure-Activity Relationships Through Sequencing (HiT-StARTS)^12 to identify the privileged RNA motifs that bind each small molecule. Briefly, the frequency of occurrence of a selected RNA was compared to the frequency of occurrence of the same RNA from RNA-seq analysis of the starting RNA library to account for biases arising during transcription and RT-PCR. This pooled population comparison affords the parameter Zobs, a metric of statistical confidence. A large, positive Zobs indicates a strong preference for binding the motif while a negative Zobs indicates a strong preference against binding the motif. A Fitness Score is assigned by normalizing the Zobs values to the most statistically significant small molecule-RNA interaction to 100. […] Structure-Activity Relationships (SAR). Next, the most privileged RNA motif binders and the most discriminated against RNA motifs (non-binders) for each compound selection was analyzed by generating LOGOS from the highest and lowest 0.5% of Zobs scores^37. By comparing the LOGOS for related compounds, or DiffLogos, SAR can be defined. Indeed, various hit compounds differ by a single functional group, including compounds A and B (FIG. 5). […] In contrast, the RNA motifs most hindered from binding compounds 1 and 2 (discriminated against) are quite different (FIG. 5B).
Four compounds that share an indolylpyrimidine-2,4-diamine core bound members of A (5-nucleotide hairpin library).
Oligonucleotides. All DNA oligonucleotides were purchased from Integrated DNA Technologies, Inc. (IDT) and used without further purification. RNA oligonucleotide competitors were purchased from Dharmacon and de-protected according to the manufacturer's standard procedure. All oligonucleotide solutions were prepared with NANOpure water. […]

[3] = molecular target: HCV RNA motif 5′CUG3′/3′G_C5′ (SL II); experiment: In solution, fluorescence-based binding affinity assay, HCV RNA motifs; parameters: species or system Hepatitis C virus
Text: as §1
(§4) where n1 is the size of Population 1 (number of sequencing reads for a given RNA from RNA-seq analysis of the selected library), n2 is the size of Population 2 (number of sequencing reads for the same RNA from RNA-seq analysis of the starting library), p1 is the observed proportion of Population 1 (the number of reads for a given RNA from selected library/total number of reads), and p2 is the observed proportion for Population 2 (the number of reads for the same RNA in the starting library/total number of reads). Generation of Logos and DiffLogos: Zobs corresponding to the highest (enriched) 0.5% and lowest (discriminated against) 0.5% scores were analyzed to generate consensus sequences, or Logos. The resulting list of sequences were converted to position weight matrix (PWM) lists for each compound. “Enriched” and “discriminated” sequences were kept separate using JMP®, Version <13.2.1>. SAS Institute Inc., Cary, N.C., 1989-2007. The R package Difflogo,^16 which is part of Bioconductor, was utilized to create the sequence logos from PWM lists for each compound and visually compare the differences between them. Binding Affinity Measurements. Dissociation constants were determined using an in solution, fluorescence-based assay. […] Serial dilutions (1:2) of the small molecule were then completed in 1× Assay Buffer supplemented with 1 mM MgCl2. The solutions were incubated for 30 min at room temperature, transferred to a 96-well plate, and fluorescence intensity measured on a BioTek-FLx800 plate reader. The change in fluorescence intensity as a function of small molecule concentration was fit to a one site binding model per equation 3: […]
as §2

[4] = molecular target: HCV RNA motif 5′GUG3′/3′C_C5′ (SL I and SL III); experiment: as above; parameters: species or system Hepatitis C virus
Text: as §1, §4, §2

[5] = molecular target: HCV RNA motif 5′UAG3′/3′A_C5′ (SL I); experiment: as above; parameters: species or system Hepatitis C virus
Text: as §1, §4, §2

panel of 22 kinases = experiment: In vitro inhibition of a panel of kinases; type: biochemical; settings: 20 μM; panel of 22 kinases

Work on `C[C@@]1(O)[C@H](O)[C@@H](CO)O[C@H]1n1cnc2c(N)ncnc21` [2′-C-methyladenosine, reference compound] yielded an IC50 [1] of 4.5 ± 0.1 µM.

`CNc1nc(Nc2ccc(C3=NCCN3)cc2)nc(Nc2ccc(C3=NCCN3)cc2)n1` [Compound 2] was tested, and the “closing base pair preference (LOGOS)” value (RNA motif libraries A-E) was “potential preference for GU closing base pairs”.

With `Cn1ccc2cc(-c3cc(NCc4nc5ccccc5[nH]4)nc(N)n3)ccc21` [Compound 3] the “nucleotide preference in position 1 (LOGOS)” value [2] was “strong preference for G” and the “nucleotide preference in position 4 (LOGOS)” value [2] was “G>U>>A or C”.

With `COc1cc(Nc2cc(-c3ccc4c(ccn4C)c3)nc(N)n2)cc(OC)c1OC` [Compound 4] the “nucleotide preference in position 1 (LOGOS)” value [2] was “strong preference for G” and the “nucleotide preference in position 4 (LOGOS)” value [2] was “G>C>>A or U”.

For `Cn1ccc2cc(-c3cc(NCc4cccc(C(F)(F)F)c4)nc(N)n3)ccc21` [Compound 5], the “nucleotide preference in position 4 (LOGOS)” value [2] was “G>U>>A or C”.

For `Cn1ccc2cc(-c3cc(NCc4cccnc4)nc(N)n3)ccc21` [Compound 6], the “nucleotide preference in position 4 (LOGOS)” value [2] was “G≈U>>A or C”.

For `O=C(Nc1cc(C2=NCCN2)cc(C2=NCCN2)c1)c1ccc(C(=O)Nc2cc(C3=NCCN3)cc(C3=NCCN3)c2)cc1` [Compound 9], the Affinity [3] was “N.B”, the Affinity [4] was “N.B” and the Kd [5] was 1.3 ± 0.5 µM. The IC50 [1] was greater than 100 µM and the “kinases inhibited in the panel” value (panel of 22 kinases) was “No kinases were significantly inhibited”.

In the case of `O=C(Nc1cccc(C2=NCCN2)c1)c1ccc(-c2ccc(C(=O)Nc3cccc(C4=NCCN4)c3)cc2)cc1` [Compound 10], the Kd [3] is reported as 7.1 ± 4.2 µM, the Kd [4] is reported as 3.35 ± 0.77 µM and the Kd [5] is reported as 0.46 ± 0.14 µM. For the same compound, the IC50 [1] was 19 ± 2 µM and the “kinases inhibited in the panel” value (panel of 22 kinases) was “No kinases were significantly inhibited”.
